Reference: patent US6284914A, “Highly water-soluble metalloproteinase inhibitors” (Fuji Yakuhin Kogyo Kabushiki Kaisha, priority 1995, dated 2001)
Counter-ions that a name gives are not always drawn. Like-named read-outs stand apart in the source and are kept apart here.

Tests used:
collagenase (MMP-1) = target: T1, collagenase (MMP-1) (Homo sapiens, UniProt P03956); assay: Assay for Collagenase Inhibitory Activity (MMP-1); type: biochemical
T1 construct: endogenous in cells; host or cells: human fibroblast
T1 sequence (P03956 100-469): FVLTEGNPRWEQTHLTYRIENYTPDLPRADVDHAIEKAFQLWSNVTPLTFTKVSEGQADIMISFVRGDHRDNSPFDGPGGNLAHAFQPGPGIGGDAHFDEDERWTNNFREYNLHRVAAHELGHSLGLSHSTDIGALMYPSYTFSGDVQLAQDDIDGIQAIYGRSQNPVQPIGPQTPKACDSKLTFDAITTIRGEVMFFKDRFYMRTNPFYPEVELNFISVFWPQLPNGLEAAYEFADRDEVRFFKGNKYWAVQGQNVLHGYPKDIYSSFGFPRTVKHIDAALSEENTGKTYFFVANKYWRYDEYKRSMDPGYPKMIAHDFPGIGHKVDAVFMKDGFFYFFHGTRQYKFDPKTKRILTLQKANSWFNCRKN
Procedure: (§1) Inhibitory activities of the compounds represented by the general formula (I) according to the invention for collagenase (metalloproteinase concerned with a tissue destruction) derived from human fibroblast were tested by the method of Y. Murawaki et al., [Journal of Hepatology, 18, p. 328-334 (1993)], and their inhibitory activities for stromelysin derived from human fibroblast were measured by the method of S. S. Twining et al., [Anal. Biochem., 143, p. 30 (1984)].
Inhibitory activities for collagenase (MMP-1) of the compounds of Examples and comparative compounds were measured by the method of Y. Murawaki et al., [Journal of Hepatology, 18, p. 328-334 (1993)]. The latent procollagenase was activated by incubating with mercury aminophenylacetate (2 mM) at 35° C. for 2 hours. The assay was done by using bovine type I collagen labeled with fluorescein as a substrate. The activated collagenase was added to the substrate solution (0.5 mg/ml) in Tris HCl buffer (50 mM, pH 7.5) containing sodium chloride (0.4 M) and calcium chloride (10 mM). The obtained solution was incubated at 35° C. for 2 hours. The enzyme digestion was stopped by the addition of o-phenanthroline (80 mM). The mixture was added with pig spleen elastase solution (25 μg/ml) in the above Tris HCl buffer, and incubated 37° C. for 10 min. The obtained solution was added with 70% ethanol and Tris HCl buffer (170 mM, pH 9.5) containing sodium chloride (0.61 M), whereby the indigested substrate was sedimented by centrifuging at 3000 g for 20 min. The supernatant was taken, and its intensity of fluorescence was determined by the excitation wavelength (495 nm) and the measured wavelength (520 nm), and the inhibitory activity was obtained. IC50 is a concentration of a compound assayed in the digesting enzyme, whereby the splitting of the substrate was decreased to 50% compared with that attained by the enzyme alone.

[1] = Measurement of Solubility in Water; type: physicochemical; conditions: distilled water, 20±5° C., 30 min., checked by eye
Procedure: A compound of Examples or a comparative compound was added to distilled water and shaken vigorously at 20±5° C. for 30 seconds at 5 min. interval. After 30 min., it was checked by watching with eye whether the compound was dissolved or not.

stromelysin (MMP-3) = target: T2, stromelysin (MMP-3) (Homo sapiens, UniProt P08254); assay: Assay for Stromelysin Inhibitory Activity (MMP-3); type: biochemical; conditions: fluorescein-labeled casein substrate, 37° C., 2 hours, pH 7.8; read-out: Inhibitory activities for matrix metalloproeinases (MMPs), MMP-3, IC50 value
T2 construct: endogenous in cells; host or cells: human fibroblast
T2 sequence (P08254 100-477): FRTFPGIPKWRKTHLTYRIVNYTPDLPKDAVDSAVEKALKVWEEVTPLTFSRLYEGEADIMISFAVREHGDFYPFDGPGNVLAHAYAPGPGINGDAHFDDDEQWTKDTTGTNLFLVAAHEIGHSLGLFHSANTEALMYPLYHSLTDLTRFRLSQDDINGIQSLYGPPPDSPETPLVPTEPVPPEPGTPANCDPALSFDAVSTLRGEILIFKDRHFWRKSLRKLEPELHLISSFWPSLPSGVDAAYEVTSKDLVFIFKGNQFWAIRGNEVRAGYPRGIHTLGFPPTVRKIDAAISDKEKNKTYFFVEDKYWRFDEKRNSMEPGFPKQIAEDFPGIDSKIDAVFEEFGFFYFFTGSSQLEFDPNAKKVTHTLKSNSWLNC
Procedure: as §1
Inhibitory activities for stromelysin (MMP-3) of the compounds of Examples and comparative compounds were measured by the method of S. S. Twining et al., [Anal. Biochem., 143, p. 30 (1984)]. The latent prostromelysin was incubated with human plasmin (20 μg/ml) for the activation at 37° C. for 2 hours, and then the incubate was added with diisopropyl fluorophosphate solution (2.8 mg/ml) to stop the reaction. The assay was done by using casein labeled with fluorescein as the substrate. The activated stromelysin was added to a substrate solution (1 mg/ml) in Tris HCl buffer (50 mM, pH 7.8) containing calcium chloride (10 mM). The obtained solution was incubated at37° C. for 2 hours. The enzyme digestion forthesubstrate was stopped by adding 5% trichloroacetic acid. The indigested substrate was sedimented by centrifuging at 3000 g for 20 min. The supernatant was taken and added with Tris HCl buffer (0.5 M, pH 8.5), whereby its intensity of fluorescence was determined by the excitation wavelength (495 nm) and the measured wavelength (520 nm), and the inhibitory activity was obtained. IC50 is a concentration of a compound assayed in the digesting enzyme, whereby the splitting of the substrate was decreased to 50% compared with that attained by the enzyme alone.

[2] = fluorescein-labeled bovine type I collagen substrate, 35° C., 2 hours, pH 7.5, read-out: Inhibitory activities for matrix metalloproeinases (MMPs), MMP-1, IC50 value

IC50 (stromelysin (MMP-3)) | IC50 (collagenase (MMP-1); [2]) | SMILES | further results
0.01 µM | 0.008 µM | CC(C)C[C@@H](C(=O)N[C@@H](Cc1ccc(NC(=N)N)cc1)C(=O)Nc1ccccc1)C(CCCc1ccccc1)C(=O)NO (stereo partly drawn) [Example 19, N-[4-(N-Hydroxyamino)-2(R)-isobutyl-3(RS)-(3-phenyltrimethylene)succinyl]-L-4'-guanidophenylalanine-N-phenylamide Monoacetate] | –
0.01 µM | 0.004 µM | CNC(=O)[C@H](Cc1ccc(CNC(C)=O)cc1)NC(=O)[C@H](CC(C)C)C(CCCc1ccccc1)C(=O)NO (stereo partly drawn) [Example 13, N-[4-(N-Hydroxyamino)-2(R)-isobutyl-3(RS)-(3-phenyltrimethylene)succinyl]-L-4'-acetamidomethylenephenylalanine-N-methylamide] | –
0.28 µM | 0.02 µM | CCCOC[C@H](C(=O)N[C@@H](Cc1ccc(S(=O)(=O)[O-])cc1)C(=O)NC)C(CSC(C)C)C(=O)NO.[Na+] (mixture of isomers) [Example 6, N-[4-(N-Hydroxyamino)-2(R)-n-propyloxymethylene-3(RS)-isopropylthiomethylenesuccinyl]-L-4'-sulfophenylalanine-N-methylamide, Monosodium Salt] | Solubility in water [1]: > 120 mg/mL
0.11 µM | – | CNC(=O)[C@H](Cc1ccc(OC)cc1)NC(=O)[C@@H](CC(=O)NO)CC(C)C [Comparative Compound 1, N-[4-(N-Hydroxyamino)-2(R)-isobutylsuccinyl]-O-methyl-L-tyrosine-N-methylamide, reference compound] | solubility at 0.5 h ([1]; water): < 1 mg/mL
0.5 µM | 0.0051 µM | CNC(=O)[C@H](Cc1ccc(OS(=O)(=O)O)cc1)NC(=O)C(CC(=O)NO)CC(C)C (single isomer, unassigned) [Example 1 (Isomer B), N-[4-(N-Hydroxyamino)-2(R or S)-isobutylsuccinyl]-O-sulfo-L-tyrosine-N-methylamide, Monosodium Salt] | –
0.008 µM | 0.00015 µM | CNC(=O)[C@H](Cc1ccc(O)cc1)NC(=O)[C@H](CC(C)C)[C@H](CCCc1ccccc1)C(=O)NO [Comparative Compound 2, N-[4-(N-Hydroxyamino)-2(R)-isobutyl-3(S)-phenyltrimethylenesuccinyl]-L-tyrosine-N-methylamide, reference compound] | solubility at 0.5 h ([1]; water): < 1 mg/mL
0.01 µM | 0.004 µM | CNC(=O)[C@H](Cc1ccc(CNC(=N)N)cc1)NC(=O)[C@H](CC(C)C)C(CCCc1ccccc1)C(=O)NO (stereo partly drawn) [Example 14, N-[4-(N-Hydroxyamino)-2(R)-isobutyl-3(RS)-(3-phenyltrimethylene)succinyl]-L-4'-guanidomethylenephenylalanine-N-methylamide Monoacetate] | –
– | – | CNC(=O)[C@H](Cc1ccc(OS(=O)(=O)O)cc1)NC(=O)C(CC(=O)NO)CC(C)C (single isomer, unassigned) [Example 1 (Isomer A), N-[4-(N-Hydroxyamino)-2(R or S)-isobutylsuccinyl]-O-sulfo-L-tyrosine-N-methylamide, Monosodium Salt] | solubility at 0.5 h ([1]; water): > 240 mg/mL
0.0054 µM | 0.0004 µM | CNC(=O)[C@H](Cc1ccc(OS(=O)(=O)O)cc1)NC(=O)[C@H](CC(C)C)C(CCCc1ccccc1)C(=O)NO (single isomer, unassigned) [Example 3 (Isomer B), N-[4-(N-Hydroxyamino)-2(R)-isobutyl-3(R or S)-(3-phenyltrimethylene)succinyl]-O-sulfo-L-tyrosine-N-methylamide, Monosodium Salt] | Solubility in water ([1]; Monosodium Salt): 150 mg/mL
0.015 µM | 0.007 µM | CNC(=O)[C@H](Cc1ccc(CNC(C)=N)cc1)NC(=O)[C@H](CC(C)C)C(CCCc1ccccc1)C(=O)NO (single isomer, unassigned) [Example 10, N-[4-(N-Hydroxyamino)-2(R)-isobutyl-3(R or S)-(3-phenyltrimethylene)succinyl]-L-4'-acetimidoyliminomethylenephenylalanine-N-methylamide Monoacetate] | –
– | – | CNC(=O)[C@H](Cc1ccc(S(=O)(=O)O)cc1)NC(=O)[C@H](CC(C)C)C(CSc1cccs1)C(=O)NO (single isomer, unassigned) [Example 5 (Isomer B), N-[4-(N-Hydroxyamino)-2(R)-isobutyl-3(R or S)-(thienylthiomethylene)succinyl]-L-4'-sulfophenylalanine-N-methylamide, Monosodium Salt] | Solubility in water ([1]; Monosodium Salt): > 300 mg/mL
– | – | CNC(=O)[C@H](Cc1ccccc1)NC(=O)[C@H](CC(C)C)[C@H](CSc1cccs1)C(=O)NO [Comparative Compound 3, N-[4-(N-Hydroxyamino)-2(R)-isobutyl-3(S)-thienyltiomethylenesuccinyl]-L-phenylalanine-N-methylamide, reference compound] | solubility at 0.5 h ([1]; water): < 1 mg/mL
– | – | CNC(=O)[C@H](Cc1ccc(OS(=O)(=O)O)cc1)NC(=O)[C@H](CC(C)C)C(CCCc1ccccc1)C(=O)NO (single isomer, unassigned) [Example 3 (Isomer A), N-[4-(N-Hydroxyamino)-2(R)-isobutyl-3(R or S)-(3-phenyltrimethylene)succinyl]-O-sulfo-L-tyrosine-N-methylamide, Monosodium Salt] | solubility at 0.5 h ([1]; water): > 100 mg/mL
0.006 µM | 0.5 µM | CC(C)C[C@@H](C(=O)N[C@@H](Cc1ccc(OS(=O)(=O)O)cc1)C(=O)Nc1cccc2ccccc12)C(CCCc1ccccc1)C(=O)NO (stereo partly drawn) [Example 18, N-[4-(N-Hydroxyamino)-2(R)-isobutyl-3(RS)-(3-phenyltrimethylene)succinyl]-O-sulfo-L-tyrosine-N-1-naphthylamide, Monosodium Salt] | –
0.005 µM | 0.005 µM | CNC(=O)[C@H](Cc1ccc(C(=N)N)cc1)NC(=O)[C@H](CC(C)C)C(CCCc1ccccc1)C(=O)NO (single isomer, unassigned) [Example 17, N-[4-(N-Hydroxyamino)-2(R)-isobutyl-3(R or S)-(3-phenyltrimethylene)succinyl]-L-4'-amidinophenylalanine-N-methylamideMonoacetate] | –
0.01 µM | 0.01 µM | CNC(=O)[C@H](Cc1ccc(CNC(=N)c2ccccc2)cc1)NC(=O)[C@H](CC(C)C)C(CCCc1ccccc1)C(=O)NO (stereo partly drawn) [Example 12, N-[4-(N-Hydroxyamino)-2(R)-isobutyl-3(RS)-(3-phenyltrimethylene)succinyl]-L-4'-benzimidoyliminomethylenephenylalanine-N-methylamide Monoacetate] | –

SMILES | IC50 (stromelysin (MMP-3)) | IC50 (collagenase (MMP-1); [2]) | further results
CNC(=O)[C@H](Cc1ccc(OP(=O)(O)O)cc1)NC(=O)C(CC(=O)NO)CC(C)C (single isomer, unassigned) [Example 9, N-[4-(N-Hydroxyamino)-2(R or S)-isobutylsuccinyl]-O-phospho-L-tyrosine-N-methylamide, Disodium Salt] | 0.4 µM | – | IC50 (collagenase (MMP-1)): 0.017 µM; solubility at 0.5 h [1]: > 200 mg/mL
